The record followed here is paper PMC9787607, “A Novel Protocol for the Synthesis of 1,2,4-Oxadiazoles Active against Trypanosomatids and Drug-Resistant Leukemia Cell Lines” (Tropical Medicine and Infectious Disease, 2022).

A short description of data set [1]: Cytotoxicity to BALB/c mouse total splenocytes (MTT). It counts as cell-based. The settings on record: male; for viability at 48 h, 100 µM / viability at 48 h, 0.4 µM / viability at 48 h, 1 µM / viability at 48 h, 2.6 µM / viability at 48 h, 6.4 µM / viability at 48 h, 16 µM / viability at 48 h, 40 µM: total splenocytes (primary); for EC50 at 48 h: primary total splenocytes, MTT, read-out: EC50 murine splenocytes. Here is the method:
BALB/c mouse total splenocytes were harvested from male mice between 6–8 weeks old. After euthanasia, the spleens were removed and macerated in DMEM. After centrifugation, the cells were treated with hemolytic ACK buffer at 37 °C for 5 min. […] After incubation for 48 h at 37 °C in 5% CO2, cell viability was determined after the addition of 20 µL per well of a solution containing MTT salt (3.0 mM) and phenazine metasulphate (0.72 mM). After further incubation for 1 h at 37 °C, the medium was removed, and DMSO was added to dissolve the dark-blue formazan crystals formed by MTT reduction. Absorbance was measured on a microplate reader at 570 nm.
(§1) The percent cell or parasite viability was calculated by the formula: % viability = [(A − P)/(N − P)] × 100, A = absorbance of specific well, P = positive control, N = negative control. Determination of half-maximal effective concentrations (EC50), calculated by logarithmic regression, and significance analysis (p < 0.05), using ANOVA and Dunnett’s test, by GraphPad Prism 7.0 software. The results are expressed as the mean and standard deviation (SD) of three independent experiments.

In a further data set the test system is FEPS (K562/DNR). As to the kind of experiment: MTT cytotoxicity to MDR CML cell line FEPS. It counts as cell-based, human. The settings on record: for RR (relative resistance) FEPS: (EC50 MDR cells)/(EC50 parental cells), FEPS/K562; for EC50: Homo sapiens, K562, 72 h, MTT. Put shortly: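 K562 and its MDR sublines Lucena-1 (maintained in 60 nM VCR) and FEPS (500 nM DNR) seeded at 2 × 10^4 cells/mL in RPMI-1640 with 10% FBS, treated with compounds at 1–100 μM (0.5% DMSO controls). MTT 0.5 g/L for 3 h, A570 read; EC50 by logarithmic regression, three independent experiments.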

In a further data set the test system is RAW 264.7 cells. The data set is described as follows: Cytotoxicity to RAW 264.7 cells (MTT). The format is cell-based, murine. Particulars: Mus musculus, RAW264.7; 48 h, MTT; read-out: EC50 RAW. How it is done:
(§2) LLC-MK2 kidney fibroblasts (ATCC) and RAW 264.7 macrophages (ATCC) were cultivated in culture flasks in complete DMEM with 5% FBS at 37 °C in 5% CO2. The LLC-MK2 cell monolayer was detached by treatment with trypsin-EDTA 0.05% for 5 min at 37 °C. The RAW cell monolayer was detached mechanically. In both cases, the cells were centrifuged at 480× g for 6 min and resuspended in complete DMEM with 5% FBS, and the cell density was determined by counting with trypan-blue dye exclusion on Neubauer chambers before use.
RAW 264.7 cells were seeded in a 96-well microplate (2.0 × 10^4 cells per well) in complete DMEM with 5% FBS (120 µL per well). After incubation for 24 h at 37 °C in 5% CO2, the medium was renewed, and compounds were added at a range of concentrations in triplicate (100–1 μM). Untreated cells and cells treated with DMEM and 10% DMSO were used as negative and positive controls, respectively. Vehicle control containing DMEM and 0.3% DMSO was maintained for comparison. After incubation for 48 h at 37 °C in 5% CO2, the medium was renewed, and an MTT solution in PBS was added (3.0 mM, 20 µL per well). After incubation for 2 h at 37 °C in 5% CO2, the supernatant was removed, and MTT formazan was dissolved in DMSO (150 µL per well). Absorbance was measured using a microplate reader at 570 nm.
as §1

In another data set the test system is LLC-MK2 cells. The data set is described as follows: Cytotoxicity to LLC-MK2 host cells (MTT). The settings on record: Macaca mulatta, LLC-MK2; 120 h, MTT. The format is cell-based. How it is done:
as §2
(§3) LLC-MK2 cells were seeded in a 96-well microplate (1.0 × 10^4 cells per well) in complete DMEM with 5% FBS (120 µL per well). After incubation for 24 h at 37 °C in 5% CO2, the medium was renewed, and compounds were added at a range of concentrations in triplicate (50 μM or 100–1 μM). Untreated cells and cells treated with DMEM and 10% DMSO were used as negative and positive controls, respectively. Vehicle control containing DMEM and 0.3% DMSO was maintained for comparison. After incubation for 120 h at 37 °C in 5% CO2, the medium was renewed, and MTT salt solution in PBS was added (3.0 mM, 20 µL per well). After incubation for 2 h at 37 °C in 5% CO2, the supernatant was removed, and MTT formazan was dissolved in DMSO (150 µL per well). Absorbance was measured using a microplate reader at 570 nm.
as §1

Data set [2] in a line: Cytotoxicity to LLC-MK2 host cells (MTT). It counts as cell-based. The settings on record: rhesus monkey, LLC-MK2 cells (kidney fibroblasts); for viability at 120 h, 50 µM: screening at 50 μM. How it is done:
as §2, §3, §1

In data set [3] the test system is drug-sensitive and drug-resistant chronic myeloid leukemia cell lines (K562, Lucena-1, FEPS). The data set is described as follows: MTT cytotoxicity to CML cell lines, statements over all lines. It counts as cell-based. The settings on record: Homo sapiens, K562-Lucena 1, statement over K562, Lucena-1 and FEPS; read-out: EC50 against CML cell lines. How it is done:
(§4) The CML cell lines K562, Lucena-1 (K562/VCR), and FEPS (K562/DNR) were cultured in RPMI-1640 medium supplemented with 25 mM HEPES and 2 g L^−1 sodium bicarbonate adjusted to pH 7.4 with NaOH, 100 U penicillin and […] streptomycin. All media were supplemented with 10% FBS. Dr. Vivian M. Rumjanek (Instituto de Bioquímica Médica, UFRJ, Brazil) kindly donated Lucena-1 and FEPS cells. Briefly, K562 cells were exposed to increasing concentrations of the chemotherapeutic drugs vincristine sulfate (VCR) and daunorubicin hydrochloride (DNR) (both from Sigma-Aldrich), as described previously. Lucena-1 (K562/VCR) and FEPS (K562/DNR) cells were cultured in the presence of either 60 nM VCR or 500 nM DNR to maintain the MDR phenotypes. For subcultures, cells were harvested every three days followed by washing with cold FBS, and a final concentration of 2 × 10^4 cells mL^−1 was maintained at 37 °C in 5% CO2.
(§5) Cell viability was determined by the 3-(4,5-dimethylthiazol-2-yl)-2,5-diphenyltetrazolium (MTT) colorimetric assay. CML cells (2 × 10^4 cells·mL^−1) were incubated for 72 h at 37 °C, followed by treatment with compounds at a range of concentrations (100–1 μM). Negative controls were prepared with 0.5% DMSO. An MTT salt solution was added to each well to a final concentration of 0.5 g·L^−1, and plates were incubated at 37 °C in 5% CO2 for 3 h. After centrifugation, 200 μL DMSO was added to dissolve the dark-blue formazan crystals formed by MTT reduction. Absorbance was measured on a microplate reader at 570 nm, which is directly proportional to formazan contents and indicative of living cells.

Another data set has as its system K562. As to the kind of experiment: MTT cytotoxicity to CML cell line K562. The format is cell-based. Particulars: Homo sapiens, 72 h. Here is the method:
as §4, §5, §1

The mark [4] stands for this setting: 100 μM, 48 h, compared to the untreated control (Table S1).
Where [5] appears, read: Table S2 dose-dependent, 100 µM.

Where only a bound is given, the exact number is not on record here.

By viability is commonly meant a per cent measure of how many cells are alive, often set against a control. For orientation: EC50 means the concentration at which the effect is half-maximal. The melting point is the temperature of the solid-liquid transition. For `COc1cc(-c2noc(/C=C/c3ccc4c(c3)OCO4)n2)cc(OC)c1OC` [Compound 24, (E)-3-(3,4,5-trimethoxyphenyl)-5-[2-(3,4-methylenedioxy-phenyl)vinyl]-1,2,4-oxadiazole], the melting point is 177 to 180 °C. For the same compound, the viability at 48 h, 100 µM in data set [1] (setting [4]) is 72.8 ± 4.2%. In the data set with FEPS (K562/DNR), the “RR (relative resistance) FEPS” value is reported as 0.15 and the EC50 was 8.9 ± 0.3 µM. For the same compound, in the data set on RAW 264.7 cells, the EC50 is 58.8 ± 6.1 µM. Further, the midpoint of the response in the data set on LLC-MK2 cells, the EC50, lay at 53.4 ± 2.6 µM. Besides, in data set [2], the viability at 120 h, 50 µM came out at 55.9 ± 9.3%. In addition, the EC50 in data set [3] is less than 20 µM. Also, the EC50 in the data set with K562 came out at 60.4 ± 4.1 µM.
As to `C(=C\c1nc(-c2ccccc2)no1)/c1cccnc1` [Compound 15, (E)-3-phenyl-5-[2-pyridyn-3-yl-vinyl]-1,2,4-oxadiazole], the melting point was in the range of 107 to 110 °C. Further, in data set [1] (48 h), the EC50 at 48 h came out at 52.2 ± 4.51 µM. In data set [1] (Table S2 dose-dependent), this compound had a viability at 48 h, 0.4 µM of 94.5 ± 9.1%; a viability at 48 h, 1 µM of 92.7 ± 4.1%; a viability at 48 h, 2.6 µM of 86.3 ± 7.5%; a viability at 48 h, 6.4 µM of 90.2 ± 10.7%. In data set [1] (Table S2 dose-dependent), the viability at 48 h, 16 µM was 77.7 ± 4.8% and the viability at 48 h, 40 µM was determined as 63.1 ± 5.8%. In data set [1] (setting [5]), this compound yielded a viability at 48 h, 100 µM of 29.5 ± 1.6%. In addition, in the data set on FEPS (K562/DNR), the “RR (relative resistance) FEPS” value was 0.68 and the EC50 amounted to 18.7 ± 3.9 µM. In addition, the EC50 in the data set on LLC-MK2 cells is more than 100 µM. In addition, the EC50 in data set [3] is less than 20 µM. Moreover, the midpoint of the response in the data set with K562, the EC50, lay at 27.6 ± 5.8 µM.
As to `COc1cc(/C=C/c2nc(-c3cc(OC)c(OC)c(OC)c3)no2)cc(OC)c1OC` [Compound 23, (E)-3-(3,4,5-trimethoxyphenyl)-5-[2-(3,4,5-trimethoxyphenyl)-vinyl]-1,2,4-oxadiazole], the melting point fell in the range of 118 to 120 °C. Moreover, in data set [1] (48 h), the EC50 at 48 h was determined as 33.3 ± 2.83 µM. In data set [1] (Table S2 dose-dependent), this compound yielded a viability at 48 h, 0.4 µM of 97.3 ± 3.3%; a viability at 48 h, 1 µM of 94.9 ± 4%; a viability at 48 h, 2.6 µM of 95 ± 4.4%; a viability at 48 h, 6.4 µM of 84.6 ± 6.7%. In addition, in data set [1] (Table S2 dose-dependent), the viability at 48 h, 16 µM was determined as 69.5 ± 6.4% and the viability at 48 h, 40 µM was found to be 43.4 ± 4.2%. Besides, in data set [1] (setting [5]), the viability at 48 h, 100 µM is 14.1 ± 3.5%. Also, in the data set on FEPS (K562/DNR), the “RR (relative resistance) FEPS” value is listed as 0.42 and the EC50 came out at 5.5 ± 0.6 µM. Besides, the EC50 with RAW 264.7 cells is more than 100 µM. It took 78 ± 4.7 µM to reach a half-maximal effect in the data set on LLC-MK2 cells (EC50). In addition, the viability at 120 h, 1 µM in data set [2] (host cells at 1.0 μM, read-out: host cell viability) came out at 93 ± 4.4%. In addition, the viability at 120 h, 50 µM in data set [2] turned out to be 64.1 ± 4.4%. The compound further displayed a half-maximal effective concentration (EC50) in the data set on K562 of 13.2 ± 2.9 µM.
For the compound `COc1cc(/C=C/c2nc(-c3ccccc3)no2)cc(OC)c1OC` [Compound 12, (E)-3-phenyl-5-[2-(3,4,5-trimethoxyphenyl)vinyl]-1,2,4-oxadiazole], the viability at 48 h, 100 µM in data set [1] (setting [4]) turned out to be 72.1 ± 6.5%. Besides, the “RR (relative resistance) FEPS” value with FEPS (K562/DNR) is reported as 1.42. Besides, the EC50 is 25.5 ± 4.9 µM in the data set on FEPS (K562/DNR); more than 100 µM with RAW 264.7 cells; more than 100 µM with LLC-MK2 cells; less than 20 µM in data set [3]; 18 ± 0.9 µM with K562. For the same compound, in data set [2], the viability at 120 h, 50 µM was determined as 88.2 ± 5.2%.
